US20040024024A1, “Aromatic sulfone hydroxamates and their use as protease inhibitors” (priority 2001, published 2004)
One block for each compound: values may come before it.

Key:
Assay in all cases: In vitro MMP inhibition, IC50 determination (fluorogenic substrate I)
Assay type in all cases: biochemical
Human recombinant MMP-9 = biological target: T1, Human recombinant MMP-9 (Homo sapiens, UniProt P14780)
T1 construct: made in house; host or cells: MMP-9-transfected HT1080 cells (spent media)
Experimental: (§1) Several hydroxamates and salts thereof were analyzed in in vitro assays to determine their ability to inhibit the MMP cleavage of peptide substrates. Inhibition (Ki) and IC50 constants were calculated from the assayed hydroxamate-MMP interactions.
(§2) Human recombinant MMP-1, MMP-2, MMP-9, MMP-13, and MMP-14 were used in this assay. All enzymes were prepared in Assignee's laboratories following usual laboratory procedures. Protocols for the preparation and use of these enzymes are available in the scientific literature. See, e.g., Enzyme Nomenclature (Academic Press, San Diego, Calif., 1992) (and the citations therein). See also, Frije et al., J. Biol. Chem., 26(24), 16766-73 (1994).
The MMP-9 proenzyme was purified by gelatin Sepharose chromatography from spent media of MMP-9-transfected HT1080 cells provided by Dr. Howard Welgus of Washington University (St. Louis, Mo.).
(§3) All MMPs were activated using 4-aminophenylmercuric acetate (“APMA”, Sigma Chemical, St. Louis, Mo.) or trypsin. MMP-9 also was activated using human recombinant MMP-3 (purified in Assignee's laboratory following standard cloning and purification techniques).
(§4) Two fluorogenic, methoxycoumarin-containing polypeptide substrates were used in the MMP inhibition assays:
(§5) MCA-ProLeuGlyLeuDpaAlaArgNH2 (I)
(§6) Here, “Dpa” is 3-(2,4-dinitrophenyl)-L-2,3-diaminopropionyl group, and “MCA” is 7-methoxycoumarin-4-yl acetyl. Substrate (I) was purchased from Baychem (Redwood City, Calif.), and substrate II was prepared Assignee's laboratory. Substrate I was used in the IC50 determination assays, while substrate II was used in the Ki determination assays. In the absence of MMP inhibitory activity, either substrate is cleaved at the Gly-Leu peptide bond. This cleavage separates the highly fluorogenic peptide from the 2,4-dinitrophenyl quencher, thus resulting in increase of fluorescent intensity.
(§7) The stock solutions of the assayed hydroxamates (or salts thereof) were prepared in 1% dimethyl sulfoxide (DMSO). These stock solutions were diluted in Buffer A (100 mM Tris-HCl, 100 mM NaCl, 10 mM CaCl2, 0.05% polyoxyethylene 23 lauryl ether, pH 7.5) to obtain solutions with different hydroxamate concentrations, i.e., assay solutions with different concentrations of the assayed MMP inhibitory compound. The experiment controls contained the same amount of Buffer A/DMSO as the assayed sample, but contained no hydroxamate (or salt thereof).
(§8) The assays from which the IC50 determinations were made were performed as follows. The MMPs were activated with either trypsin or APMA (4-aminophenylmercuric acetate, Sigma Chemical, St. Louis, Mo.). The assayed hydroxamate samples were, incubated in Microfluorrm White Plates (Dynatech, Chantilly, VA) and analyzed on a Perkin Elmer L550 plate reader (Norwalk, Conn.). The excitation wavelength was 328 nm, and the emission wavelength—415 nm. All samples (assayed hydroxamates and controls) were incubated in separate plates at room temperature in the presence of 4 μM of MMP substrate (I). As stated in the previous paragraph, samples containing varying concentrations of the same assayed hydroxamate were prepared. Inhibition was measured as a reduction in fluorescent intensity as a function of MMP inhibitor concentration.

Human recombinant MMP-1 = biological target: T2, Human recombinant MMP-1 (Homo sapiens, UniProt P03956)
T2 construct: made in house; host or cells: MMP-1-transfected HT-1080 cells (spent media)
T2 sequence (P03956 100-469): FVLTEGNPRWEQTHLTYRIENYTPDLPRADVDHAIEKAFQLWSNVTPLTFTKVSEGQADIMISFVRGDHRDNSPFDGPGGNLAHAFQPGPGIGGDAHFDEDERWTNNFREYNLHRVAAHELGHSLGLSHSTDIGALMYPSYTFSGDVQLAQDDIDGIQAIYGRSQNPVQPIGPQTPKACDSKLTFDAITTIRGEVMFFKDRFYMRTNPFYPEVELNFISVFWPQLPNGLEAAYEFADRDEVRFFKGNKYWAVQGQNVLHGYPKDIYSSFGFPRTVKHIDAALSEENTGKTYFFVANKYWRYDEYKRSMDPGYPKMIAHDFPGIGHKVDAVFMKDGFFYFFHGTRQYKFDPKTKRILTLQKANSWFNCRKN
Experimental: as §1, §2
The MMP-1 proenzyme was purified from the spent media of MMP-1-transfected HT-1080 cells provided by Dr. Harold Welgus of Washington University (St. Louis, Mo.). The protein was purified on a zinc chelating column.
as §3, §4, §5, §6, §7, §8

Human recombinant MMP-14 = biological target: T3, Human recombinant MMP-14 (Homo sapiens, UniProt P50281)
T3 construct: The catalytic domain enzyme was expressed in E. coli inclusion bodies, solubilized in urea; made in house
Experimental: as §1, §2
The MMP-14 full length cDNA was provided by Dr. Gregory Goldberg of Washington University (St. Louis, Mo.). The catalytic domain enzyme was expressed in E. coli inclusion bodies, solubilized in urea, purified on a preparative […] reverse phase HPLC column, and then refolded in the presence of zinc acetate and purified for use.
as §3, §4, §5, §6, §7, §8

Human recombinant MMP-13 = biological target: T4, Human recombinant MMP-13 (Homo sapiens, UniProt P45452)
T4 construct: made in house; host or cells: baculovirus / insect cells
Procedure, shortened: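 Fluorescence at 415 nm (excitation 328 nm) reports Gly-Leu cleavage of 4 μM quenched methoxycoumarin peptide substrate I. Human recombinant MMP-13, activated by trypsin or APMA, was incubated at room temperature with varied inhibitor concentrations in pH 7.5 Tris/NaCl/CaCl2 buffer; IC50 derived from reduced fluorescence.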

Human recombinant MMP-2 = biological target: T5, Human recombinant MMP-2 (Homo sapiens, UniProt P08253)
T5 construct: made in house; host or cells: MMP-2-transfected p2AHT2 cells
T5 sequence (P08253 110-660): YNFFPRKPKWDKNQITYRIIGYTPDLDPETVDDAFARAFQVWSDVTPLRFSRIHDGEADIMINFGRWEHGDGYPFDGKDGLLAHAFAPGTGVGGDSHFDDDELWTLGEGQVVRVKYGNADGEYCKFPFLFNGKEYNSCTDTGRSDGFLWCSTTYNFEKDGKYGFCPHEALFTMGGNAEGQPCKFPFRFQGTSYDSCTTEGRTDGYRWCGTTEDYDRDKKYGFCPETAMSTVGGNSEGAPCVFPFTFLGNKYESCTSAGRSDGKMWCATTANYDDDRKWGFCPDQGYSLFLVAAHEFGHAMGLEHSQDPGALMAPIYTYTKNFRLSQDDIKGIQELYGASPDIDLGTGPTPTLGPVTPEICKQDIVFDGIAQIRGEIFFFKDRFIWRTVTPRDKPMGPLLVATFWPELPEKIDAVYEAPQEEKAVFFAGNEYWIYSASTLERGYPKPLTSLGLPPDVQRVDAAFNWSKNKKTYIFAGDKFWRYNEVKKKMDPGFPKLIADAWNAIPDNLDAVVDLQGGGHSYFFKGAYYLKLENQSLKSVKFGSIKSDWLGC
Procedure, shortened: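 IC50 was derived from the concentration-dependent fall in fluorescence (ex 328, em 415 nm) on Gly-Leu cleavage of 4 μM MCA/Dpa-quenched substrate I. Assays ran at room temperature in pH 7.5 Tris/NaCl/CaCl2/Brij buffer with MMP-2 activated by trypsin or APMA; inhibitors were diluted from 1% DMSO stocks.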

[1] = value outside parentheses (Ki in parenthesis)

T1 sequence (P14780 107-707 limits assumed): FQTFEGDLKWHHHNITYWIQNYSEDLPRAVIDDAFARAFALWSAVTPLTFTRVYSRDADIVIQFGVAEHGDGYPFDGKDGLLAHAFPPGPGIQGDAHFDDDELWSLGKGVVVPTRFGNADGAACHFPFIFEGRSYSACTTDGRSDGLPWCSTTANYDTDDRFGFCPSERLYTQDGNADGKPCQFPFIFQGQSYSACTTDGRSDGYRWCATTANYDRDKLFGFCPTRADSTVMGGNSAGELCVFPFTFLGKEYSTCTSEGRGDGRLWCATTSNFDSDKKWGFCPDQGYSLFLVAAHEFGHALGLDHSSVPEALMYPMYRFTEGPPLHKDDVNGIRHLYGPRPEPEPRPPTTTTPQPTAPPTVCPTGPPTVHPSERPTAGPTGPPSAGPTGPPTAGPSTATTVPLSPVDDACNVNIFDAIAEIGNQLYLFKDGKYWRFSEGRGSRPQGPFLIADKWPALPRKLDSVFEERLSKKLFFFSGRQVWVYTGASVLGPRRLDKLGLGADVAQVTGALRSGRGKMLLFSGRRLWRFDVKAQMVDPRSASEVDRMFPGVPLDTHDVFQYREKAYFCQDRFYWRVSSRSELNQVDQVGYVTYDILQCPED

IC50 (Human recombinant MMP-9; value outside parenthesis): 273 nM
IC50 (Human recombinant MMP-1; value outside parenthesis): 5930 nM
IC50 (Human recombinant MMP-14; value outside parenthesis): > 10000 nM
IC50 (Human recombinant MMP-13; value outside parenthesis): 6.8 nM
IC50 (Human recombinant MMP-2; value outside parenthesis): 312 nM
SMILES: O=C1N(CCCOc2ccc(S(=O)(=O)C3(C(=O)NO)CCOCC3)cc2)CCN1c1ccc(C(F)(F)F)cc1 [Example 193]

IC50 (Human recombinant MMP-1; [1]): > 10000 nM
IC50 (Human recombinant MMP-13; [1]): 1400 nM
IC50 (Human recombinant MMP-2; [1]): 3500 nM
SMILES: COC(=O)CCCN(C)c1ccc(S(=O)(=O)C2(C(=O)NO)CCOCC2)cc1 [Example 458]

IC50 (Human recombinant MMP-1; [1]): > 10000 nM
IC50 (Human recombinant MMP-13; [1]): 120 nM
IC50 (Human recombinant MMP-2; [1]): 270 nM
SMILES: CC(C)=CC1C(COc2ccc(S(=O)(=O)C3(C(=O)NO)CCOCC3)cc2)C1(C)C (centres unmarked) [Example 471]

IC50 (Human recombinant MMP-1; [1]): > 10000 nM
IC50 (Human recombinant MMP-13; [1]): 500 nM
IC50 (Human recombinant MMP-2; [1]): > 10000 nM
SMILES: CC(C)(COc1ccc(S(=O)(=O)C2(C(=O)NO)CCOCC2)cc1)CSc1ccc(OC(F)(F)F)cc1 [Example 435]

IC50 (Human recombinant MMP-9; value outside parentheses): 138 nM
IC50 (Human recombinant MMP-1; value outside parentheses): > 10000 nM
IC50 (Human recombinant MMP-14; value outside parentheses): > 10000 nM
IC50 (Human recombinant MMP-2; value outside parentheses): 34.7 nM
SMILES: O=C(NO)C1(S(=O)(=O)c2ccc(OCCOCc3cccnc3)cc2)CCOCC1 [Example 517]

IC50 (Human recombinant MMP-1; [1]): 1300 nM
IC50 (Human recombinant MMP-13; [1]): 2 nM
IC50 (Human recombinant MMP-2; [1]): 1.5 nM
SMILES: CC1CCCCC1COc1ccc(S(=O)(=O)C2(C(=O)NO)CCOCC2)cc1 (centres unmarked) [Example 477]

IC50 (Human recombinant MMP-9; value outside parentheses): 47.1 nM
IC50 (Human recombinant MMP-1; value outside parentheses): > 10000 nM
IC50 (Human recombinant MMP-13; value outside parentheses): 0.41 nM
IC50 (Human recombinant MMP-2; value outside parentheses): 3.91 nM
SMILES: CC(=O)c1ccc(OCCOc2ccc(S(=O)(=O)C3(C(=O)NO)CCOCC3)cc2)cc1 [Example 659]

IC50 (Human recombinant MMP-1; [1]): > 10000 nM
IC50 (Human recombinant MMP-13; [1]): 100 nM
IC50 (Human recombinant MMP-2; [1]): 1500 nM
SMILES: COc1cccc(SCC(C)(C)COc2ccc(S(=O)(=O)C3(C(=O)NO)CCOCC3)cc2)c1 [Example 436]

IC50 (Human recombinant MMP-1; [1]): > 10000 nM
IC50 (Human recombinant MMP-13; [1]): > 10000 nM
IC50 (Human recombinant MMP-2; [1]): > 10000 nM
SMILES: CN(CCCC(=O)O)c1ccc(S(=O)(=O)C2(C(=O)NO)CCOCC2)cc1 [Example 457]

IC50 (Human recombinant MMP-9; [1]): > 10000 nM
IC50 (Human recombinant MMP-14; [1]): > 10000 nM
IC50 (Human recombinant MMP-13; [1]): 0.5 nM
IC50 (Human recombinant MMP-2; [1]): 6.5 nM
SMILES: COc1ccc(SCCCCOc2ccc(S(=O)(=O)C3(C(=O)NO)CCOCC3)cc2)cc1 [Example 429]

IC50 (Human recombinant MMP-9; value outside parenthesis): 107 nM
IC50 (Human recombinant MMP-1; value outside parenthesis): > 10000 nM
IC50 (Human recombinant MMP-14; value outside parenthesis): > 10000 nM
IC50 (Human recombinant MMP-2; value outside parenthesis): 18.5 nM
SMILES: CN(C)c1ccc(C(=O)CCCCOc2ccc(S(=O)(=O)C3(C(=O)NO)CCN(C4CC4)CC3)cc2)cc1 [Example 267]

IC50 (Human recombinant MMP-9; value outside parenthesis): 4020 nM
IC50 (Human recombinant MMP-1; value outside parenthesis): > 10000 nM
IC50 (Human recombinant MMP-14; value outside parenthesis): > 10000 nM
IC50 (Human recombinant MMP-13; value outside parenthesis): 5.2 nM
SMILES: O=C1CN(c2ccccc2)C(=O)N1CCCOc1ccc(S(=O)(=O)C2(C(=O)NO)CCOCC2)cc1 [Example 174]

IC50 (Human recombinant MMP-1; [1]): > 10000 nM
IC50 (Human recombinant MMP-13; [1]): 3 nM
IC50 (Human recombinant MMP-2; [1]): 7 nM
SMILES: CC(C)=CCCC(C)CCOc1ccc(S(=O)(=O)C2(C(=O)NO)CCOCC2)cc1 (centres unmarked) [Example 470]

IC50 (Human recombinant MMP-9; value outside parentheses): 115 nM
IC50 (Human recombinant MMP-1; value outside parentheses): > 10000 nM
IC50 (Human recombinant MMP-14; value outside parentheses): 967 nM
IC50 (Human recombinant MMP-2; value outside parentheses): 26.4 nM
SMILES: O=C(NO)C1(S(=O)(=O)c2ccc(OCCOCc3cccnc3)cc2)CCOCC1 [Example 518]
